Laboratory results: patent publication US8940789B2, “Neurite elongation agent, memory-improving agent and anti-Alzheimer agent comprising 4′-demethylnobiletin or 4′-demethyltangeretin as active ingredient, and process for production of the compound” (Fuji Sangyo Co., Ltd., priority 2009, dated 2015)

Key:
[1] = test system: nitric oxide (NO), inducible nitric oxide synthase (iNOS), and cyclooxygenase-2 (COX-2); conditions: synthesized demethylated compounds compared with nobiletin per se; Non Patent Literature 3; cited from earlier work
[2] = test system: Neuro2a; test: Neurite elongation activity in Neuro2a neurocytes; assay type: cell-based; conditions: 20 μM, observed under microscope two days after addition, compared with comparative controls nobiletin and tangeretin
Experimental: The conversion compound 1, i.e., an isolated product of 4′-demethylnobiletin, and the conversion compound 2, i.e., an isolated product of 4′-demethyltangeretin, both obtained in Example 3 above were used to study neurite elongation activities. Neuro2a was used as a neurocyte.
First, Neuro2a cells were cultured in DMEM medium containing 10% fetal bovine serum (FBS) in a 37° C. incubator with 5% CO2. The cells were subcultured every three days.
Then, the cells were inoculated in a 24′-well cell culture plate at 2×10^4/well using DMEM medium containing 5% FBS. Three hours after subculture, various test samples were added each at a concentration of 20 μM. 4′-demethylnobiletin (the product in Example 3), 4′-demethyltangeretin (the product in Example 3), nobiletin (a comparative control), and tangeretin (a comparative control) dissolved in ethanol were used as the test samples. As a control, only ethanol was used.
Then, two days after addition of the various test samples, neurite elongation activities were observed under microscope. FIG. 4 show picture images for comparing the neurite elongation activities exerted by the various test samples in cultures.

COc1c(OC)c(OC)c2c(=O)cc(-c3ccc(O)c(O)c3)oc2c1OC [3′,4′-didemethylnobiletin]
effect of preventing development of cancer by suppressing synthesis of NO, iNOS and COX-2 [1]: drastically higher effect than nobiletin

COc1ccc(-c2cc(=O)c3c(OC)c(OC)c(OC)c(OC)c3o2)cc1O [3′-demethylnobiletin]
effect of preventing development of cancer by suppressing synthesis of NO, iNOS and COX-2 [1]: drastically higher effect than nobiletin

COc1cc(-c2cc(=O)c3c(OC)c(OC)c(OC)c(OC)c3o2)ccc1O [4′-demethylnobiletin]
neurite elongation activity [2]: significant neurite elongation activities | effect of preventing development of cancer by suppressing synthesis of NO, iNOS and COX-2 [1]: drastically higher effect than nobiletin

COc1c(OC)c(OC)c2c(=O)cc(-c3ccc(O)cc3)oc2c1OC [4′-demethyltangeretin]
neurite elongation activity [2]: significant neurite elongation activities
